Reference: US8741905B2, “Compounds and methods for treating autoimmune diseases” (The Broad Institute, Inc., priority 2010, dated 2014)
pEC50, pIC50: −log10 of the molar value.

Key:
INS-1E cells [1] = assay: Caspase-3 activity assay (Caspase-Glo 3/7) in cytokine-treated INS-1E cells; type: cell-based, rat; settings: cytokines, 48 h, Caspase-Glo 3/7
Description: INS-1E cells were seeded at 5,000 cells per well in white optical 384-well plates and treated as described for highthroughput screening. After treatment with cytokines and compounds for 48 h, medium was removed and 20 μL Caspase-Glo 3/7 reagent was added. Luminescence was measured after 2 h of incubation using an EnVision plate reader.

INS-1E cells [2] = assay: Cellular ATP levels (CellTiter-Glo) in cytokine-treated INS-1E cells; suppression of cytokine-induced beta-cell apoptosis; type: cell-based, rat
Description: The compounds were analyzed for activity utilizing methods described in Chou et al. (ACS Chem. Biol. 2010 Aug. 20; 5(8):729-34).
INS-1E cells were seeded at 10,000 cells per well using a Multidrop Combi (Thermo Labsystems) in white optical 384-well plates (Corning Life Sciences). After overnight incubation, medium was removed and 50 μL of RPMI containing 1% FBS and a combination of cytokines (10 ng mL-^1 IL-1β, 50 ng mL^−1 IFN-γ, 25 ngmL^−1 TNF-α) was added to every well. Using libraries of compounds dissolved in DMSO and a CyBi-Well pin-transfer robot (CyBio Corp.), 0.1 μL of each compound was added. After 48 h, medium was removed and 20 μL of CellTiter-Glo reagent was added. Luminescence was measured after 10 min of incubation using an EnVision plate reader (PerkinElmer).
Instrument output files were processed using Pipeline Pilot (Accelrys) and input to MATLAB (The MathWorks) for data normalization. Compound performance scores relative to a distribution of mock-treated (DMSO) wells were calculated using a revised version of the scoring system underlying ChemBank. (Seiler et al., Nucleic Acids Res. 36, D351-359, 2008). The role of replicate treatments was further developed as follows: first, mock-treatment distributions were modeled using all mock-treated wells measured on a single day, regardless of their nominal replicate; second, per-compound scores weighted each in-plate background-subtracted measurement by the uncertainty in that measurement, using the method of maximum likelihood. The uncertainty in a single background-subtracted measurement was estimated using the number of mock-treated wells on the plate and, as a measure of the assay noise, the standard deviation of the per-day mock-treatment distribution. The signal, a weighted average of differences, was scaled by the noise, the standard deviation of the mock treatment distribution.
INS-1E cells were seeded at 10,000 cells/well using a Multidrop Combi (Thermo Labsystems) in white optical 384-well plates (Corning Life Sciences). After overnight incubation, medium was removed and 50 μL RPMI containing the treated compound, 1% FBS and a combination of cytokines (10 ng/mL IL-1β, 50 ng/mL IFN-γ, 25 ng/mL TNF-α) was added to every well. After incubation for 48 hr, medium was removed and 20 μL CellTiter-Glo reagent was added. Luminescence was measured after 10-min incubation using an EnVision plate reader (PerkinElmer).

[3] = Rattus norvegicus, INS-1E, assay not named, read-out: EC50
[4] = Rattus norvegicus, INS-1E cells, cytokines IL-1β, IFN-γ, TNF-α, 48 h, CellTiter-Glo, read-out: CTG EC50 in HTS
[5] = INS-1E cells, cytokines IL-1β, IFN-γ, TNF-α, 48 h, CellTiter-Glo, read-out: CTG EC50 in HTS

SMILES	pEC50 (INS-1E cells [1]; Rattus norvegicus)	pEC50 (INS-1E cells [2]; [3])	pIC50 (INS-1E cells [2]; Rattus norvegicus, INS-1E, read-out: IC50, inhibition of cytokine-induced beta cell apoptosis)	pEC50 (INS-1E cells [2]; [4])	pEC50 (INS-1E cells [1])	pEC50 (INS-1E cells [2]; [5])
COc1ccc(S(=O)(=O)N(C)C[C@@H]2Oc3c(NC(=O)Nc4cccc5ccccc45)cccc3C(=O)N([C@@H](C)CO)C[C@H]2C)cc1 [Compound 1A, N-(((2R,3R)-5-((S)-1-hydroxypropan-2-yl)-3-methyl-10-(3-(naphthalen-1-yl)ureido)-6-oxo-3,4,5,6-tetrahydro-2H-benzo[b][1,5]oxazocin-2-yl)methyl)-4-methoxy-N-methylbenzenesulfonamide]	< 7.00	6.37	5.31	< 7.00		
Cc1ccc(S(=O)(=O)N(C)C[C@@H]2Oc3c(NC(=O)Nc4cccc5ccccc45)cccc3C(=O)N([C@@H](C)CO)C[C@H]2C)cc1 [Compound 2A, N-(((2R,3R)-5-((S)-1-hydroxypropan-2-yl)-3-methyl-10-(3-(naphthalen-1-yl)ureido)-6-oxo-3,4,5,6-tetrahydro-2H-benzo[b][1,5]oxazocin-2-yl)methyl)-N,4-dimethylbenzenesulfonamide]	< 4.60	5.26		< 5.00		
Cc1ccc(S(=O)(=O)N(C)C[C@@H]2Oc3c(NC(=O)Nc4cccc5c4ccn5C)cccc3C(=O)N([C@@H](C)CO)C[C@H]2C)cc1 [Compound 3A, N-(((2R,3R)-5-((S)-1-hydroxypropan-2-yl)-3-methyl-10-(3-(1-methyl-1H-indol-4-yl)ureido)-6-oxo-3,4,5,6-tetrahydro-2H-benzo[b][1,5]oxazocin-2-yl)methyl)-N,4-dimethylbenzenesulfonamide]	< 5.00			< 4.60		
C[C@@H]1CN([C@@H](C)CO)C(=O)c2cccc(NC(=O)Nc3cccc4ccccc34)c2O[C@H]1CN(C)S(=O)(=O)c1ccccc1 [Compound 4A]					< 4.60	< 4.60
C[C@@H]1CN([C@@H](C)CO)C(=O)c2cccc(NC(=O)Nc3cccc4ccccc34)c2O[C@H]1CN(C)S(=O)(=O)c1ccc(Cl)cc1 [Compound 5A]					< 4.60	< 7.00
C[C@@H]1CN([C@@H](C)CO)C(=O)c2cccc(NC(=O)Nc3cccc4ccccc34)c2O[C@H]1CN(C)S(=O)(=O)c1ccc(F)cc1 [Compound 6A]					< 4.60	< 4.60
C[C@@H]1CN([C@@H](C)CO)C(=O)c2cccc(NC(=O)Nc3cccc4ccccc34)c2O[C@H]1CN(C)S(=O)(=O)c1cccc(F)c1 [Compound 7A]					< 4.60	< 4.60
C[C@@H]1CN([C@@H](C)CO)C(=O)c2cccc(NC(=O)Nc3cccc4ccccc34)c2O[C@H]1CN(C)S(=O)(=O)c1ccccc1F [Compound 8A]					< 4.60	< 4.60
C[C@@H]1CN([C@@H](C)CO)C(=O)c2cccc(NC(=O)Nc3cccc4ccccc34)c2O[C@H]1CN(C)CS(=O)(=O)c1ccc(F)cc1 [Compound 9A]					< 4.60	< 4.60
COc1ccc(S(=O)(=O)N(C)C[C@@H]2Oc3c(NC(=O)Nc4cccc5ccccc45)cccc3C(=O)N([C@@H](C)CO)C[C@H]2C)cc1F [Compound 10A]					< 4.60	< 4.70
COc1ccc(S(=O)(=O)N(C)C[C@@H]2Oc3c(NC(=O)Nc4cccc5ccccc45)cccc3C(=O)N([C@@H](C)CO)C[C@H]2C)cc1Cl [Compound 11A]					< 4.60	< 5.00
C[C@@H]1CN([C@@H](C)CO)C(=O)c2cccc(NC(=O)Nc3cccc4ccccc34)c2O[C@H]1CN(C)S(=O)(=O)c1ccc(Oc2ccccc2)cc1 [Compound 12A]					< 4.60	< 4.60
C[C@@H]1CN([C@@H](C)CO)C(=O)c2cccc(NC(=O)Nc3cccc4ccccc34)c2O[C@H]1CN(C)S(=O)(=O)c1ccc(-c2ccccc2)cc1 [Compound 13A]					< 4.60	< 4.60
C[C@@H]1CN([C@@H](C)CO)C(=O)c2cccc(NC(=O)Nc3cccc4ccccc34)c2O[C@H]1CN(C)S(=O)(=O)c1ccc2c(c1)CCC(=O)N2 [Compound 14A]					< 4.60	< 4.60
C[C@@H]1CN([C@@H](C)CO)C(=O)c2cccc(NC(=O)Nc3cccc4ccccc34)c2O[C@H]1CN(C)S(=O)(=O)c1ccc2c(c1)oc(=O)n2C [Compound 15A]					< 4.60	< 4.60
C[C@@H]1CN([C@@H](C)CO)C(=O)c2cccc(NC(=O)Nc3cccc4ccccc34)c2O[C@H]1CN(C)S(=O)(=O)c1ccc(OC(F)(F)F)cc1 [Compound 16A]					< 4.60	< 5.00
COc1ccccc1S(=O)(=O)N(C)C[C@@H]1Oc2c(NC(=O)Nc3cccc4ccccc34)cccc2C(=O)N([C@@H](C)CO)C[C@H]1C [Compound 17A]					< 4.60	< 4.60
COc1cccc(S(=O)(=O)N(C)C[C@@H]2Oc3c(NC(=O)Nc4cccc5ccccc45)cccc3C(=O)N([C@@H](C)CO)C[C@H]2C)c1 [Compound 18A]					< 4.60	< 4.60
COc1ccc(S(=O)(=O)N(C)C[C@@H]2Oc3c(NC(=O)Nc4cccc5ccccc45)cccc3C(=O)N([C@@H](C)CO)C[C@H]2C)c(OC)c1 [Compound 19A]					< 4.60	< 4.60
COc1ccc(S(=O)(=O)N(C)C[C@@H]2Oc3c(NC(=O)Nc4cccc5ccccc45)cccc3C(=O)N([C@@H](C)CO)C[C@H]2C)cc1C [Compound 20A, N-(((2R,3R)-5-((S)-1-hydroxypropan-2-yl)-3-methyl-10-(3-(naphthalen-1-yl)ureido)-6-oxo-3,4,5,6-tetrahydro-2H-benzo[b][1,5]oxazocin-2-yl)methyl)-4-methoxy-N,3-dimethylbenzenesulfonamide]	< 7.00	6.50		< 7.00		
C[C@@H]1CN([C@@H](C)CO)C(=O)c2cccc(NC(=O)Nc3cccc4ccccc34)c2O[C@H]1CN(C)S(=O)(=O)c1ccc2c(c1)OCO2 [Compound 23A]					< 4.60	< 4.60
C[C@@H]1CN([C@@H](C)CO)C(=O)c2cccc(NC(=O)Nc3cccc4ccccc34)c2O[C@H]1CN(C)S(=O)(=O)c1ccc2c(c1)OCC2 [Compound 24A]					< 4.60	< 4.60
C[C@@H]1CN([C@@H](C)CO)C(=O)c2cccc(NC(=O)Nc3cccc4ccccc34)c2O[C@H]1CN(C)S(=O)(=O)c1ccc2c(c1)OCCCO2 [Compound 25A]					< 4.60	< 4.60
C[C@@H]1CN([C@@H](C)CO)C(=O)c2cccc(NC(=O)Nc3cccc4ccccc34)c2O[C@H]1CN(C)S(=O)(=O)c1ccc2c(n1)N(C)CCO2 [Compound 26A]					< 4.60	< 4.60
C[C@@H]1CN([C@@H](C)CO)C(=O)c2cccc(NC(=O)Nc3ccc(F)cc3)c2O[C@H]1CN(C)S(=O)(=O)c1ccc(Cl)cc1 [Compound 30A, 4-Chloro-N-(((2R,3R)-10-(3-(4-fluorophenyl)ureido)-5-((S)-1-hydroxypropan-2-yl)-3-methyl-6-oxo-3,4,5,6-tetrahydro-2H-benzo[b][1,5]oxazocin-2-yl)methyl)-N-methylbenzenesulfonamide]	< 4.60			< 4.60		
C[C@@H]1CN([C@@H](C)CO)C(=O)c2cccc(NC(=O)Nc3ccccc3)c2O[C@H]1CN(C)S(=O)(=O)c1ccc(Cl)cc1 [Compound 31A]					< 4.70	< 4.70
COc1ccc(S(=O)(=O)N(C)C[C@@H]2Oc3c(NC(=O)Nc4cccc(Cl)c4Cl)cccc3C(=O)N([C@@H](C)CO)C[C@H]2C)cc1 [Compound 32A, N-(((2R,3R)-10-(3-(2,3-Dichlorophenyl)ureido)-5-((S)-1-hydroxypropan-2-yl)-3-methyl-6-oxo-3,4,5,6-tetrahydro-2H-benzo[b][1,5]oxazocin-2-yl)methyl)-4-methoxy-N-methylbenzenesulfonamide]	< 4.60			< 4.70		
COc1ccc(S(=O)(=O)N(C)C[C@@H]2Oc3c(NC(=O)Nc4ccccc4)cccc3C(=O)N([C@@H](C)CO)C[C@H]2C)cc1 [Compound 33A]					< 4.60	< 4.60
COc1ccc(S(=O)(=O)N(C)C[C@@H]2Oc3c(NC(=O)c4cc(C)nn4C)cccc3C(=O)N([C@@H](C)CO)C[C@H]2C)cc1 [Compound 34A]					< 4.60	< 4.60
Cc1ccc(S(=O)(=O)N(C)C[C@@H]2Oc3c(NC(=O)Nc4ccc(F)cc4)cccc3C(=O)N([C@H](C)CO)C[C@H]2C)cc1 [Compound 37B]						< 4.60
